{"source": "patent US20090123956A1", "about": "“Measurement of the oxidants-antioxidants balance in liquids” (Samsung Electronics Co., Ltd., priority 2006, published 2009)", "origin": "cited, not measured here", "conditions": "change in absorbance at 450 nm (reference 620 or 570 nm) at equivalent molar concentration, uric acid = 1"}
{"smiles": "N[C@@H](CCC(=O)N[C@@H](CS)C(=O)NCC(=O)O)C(=O)O", "note": "[GSH]", "values": [{"measurement": "relative activity in compare with uric acid", "value": "about 1"}]}
{"smiles": "Cc1c(C)c2c(c(C)c1O)CCC(C)(C(=O)O)O2", "note": "(stereo not drawn) [Trolox]", "values": [{"measurement": "relative activity in compare with uric acid", "value": "about 1"}]}
{"smiles": "O=C1O[C@H]([C@@H](O)CO)C(O)=C1O", "note": "[vitamin C]", "values": [{"measurement": "relative activity in compare with uric acid", "value": "about 1"}]}
